We go through two compounds from patent publication US10022395B2 (UNIWERSYTET LÓDZKI, priority 2012, dated 2018).

For test [1], the system named is CLL cells (leukemic lymphocytes, MNCs). The experiment in a line: Mitochondrial membrane potential (CMXRos / anti-glycophorin A-FITC, flow cytometry). The settings on record: for mean percentage of cells with lower mitochondrial potential (ΔΨm^low/Gly-A^−): 1.6 μM. The class given is cell-based, human. The text has this: Mitochondrial membrane potential is an early indicator of apoptosis. CMXRos, i.e. Chloromethyl-X-rosamine (the reagent's name by Mito Tracker Red CMXRos, Molecular Probes, USA), and a monoclonal antibody to glycophorin A conjugated with FITC (the reagent's name of Anti-Glycophorin A FITC by Dako, Denmark) were used for its assessment. CMXRos is a lipophilic cationic dye that accumulates in the mitochondrial matrix of viable cells when there is an electronegative load on the inner surface of the mitochondrial membrane. This asymmetric location of protons along the inner mitochondrial membrane leads to a high mitochondrial membrane potential (ΔΨm) in living cells. A decreased ΔΨm is one of the first symptoms of apoptosis, and in effect lowering of the mitochondrial uptake of CMXRos.
The stock CMXRos solution was prepared by dilution of the substance supplied by the manufacturer in 94 μl. DMSO (dimethylsulphoxide), and stored at […]. Then working solution was prepared also using DMSO (1:10) and stored at 4° C. Mononuclear cells, i.e. leukemic lymphocytes, at 1×10^6 MNCs/ml concentration, were incubated with CMXRos (2.5 μl working solution in 500 μl RPMI 1640 medium) at 37° C. for 30 minutes. […] The samples were next measured using flow cytometry. The percentage of cells not bound to anti-glycophorin A-FITC (ΔΨm^low/GIy-A^− cells), with low mitochondrial potential, was calculated.
All fluorescence measurements were performed by a flow cytometer FACSCalibur (Becton Dickinson, USA) equipped with an argon laser 488nm and computer program CeliQuestPro (Becton Dickinson, USA). Each time 10 000cells were evaluated. The fluorescence was measured using standard emission filters: green—FL1 (wavelength λ=530±20 nm) and red—FL3 (λ>600 nm).
On the technique in general: In flow cytometry, cells or beads pass a laser one at a time.

The next test deals with CLL cells (MEC-1). Briefly: Annexin-V / propidium iodide apoptosis test with 25%, 30%, 40%, 45% maltotriose dendrimers and FA. The class given is cell-based, human. Conditions: 1.6 μM.

Several values for one entry are separate records, joined by “and”; a condition that tells them apart may be missing. Identical values can stand only once.

As for `Nc1nc(F)nc2c1ncn2[C@@H]1O[C@H](CO)[C@@H](O)[C@@H]1O` [FA, fludarabine], the “mean percentage of cells with lower mitochondrial potential (ΔΨm^low/Gly-A^−)” value in test [1] (24 h) is 52.05%. Further, the “mean percentage of cells with lower mitochondrial potential (ΔΨm^low/Gly-A^−)” value in test [1] (48 h) amounted to 74.49%. Besides, in the test on CLL cells (MEC-1) (24 h), the “Ann+ IP+ (late apoptosis), mean percentage of cells” value is 6.51% and 10.83% and 6.50%; the “Ann+ IP− (early apoptosis), mean percentage of cells” value was 3.82% and 3.98% and 3.77%; the “CAI (compensating apoptotic index)” value is 1.87% and 7.35% and 4.40%. In the test on CLL cells (MEC-1) (48 h), the “Ann− IP+ (necrosis), mean percentage of cells” value was 22.82% and 15.00% and 20.27%; the “CAI (compensating apoptotic index)” value is 6.98% and 7.80% and 12.83%.
As to rituximab, the “apoptosis-inducing action (mitochondrial potential)” value in test [1] (10 μg/ml) was “apoptosis-inducing action in order of spontaneous apoptosis”.
